The values below come from patent publication US8399442B2, “Pharmaceutical compounds” (priority 2005, dated 2013).

Structures can show the parent of a compound that is named as a salt.

The nature of data set [1]: Physicochemical parameters (pKa, logP, logD).
The nature of data set [2]: physchem. The settings on record: water, thermodynamic from solid.
Data set [3] in a line: physchem. The settings on record: water.
The target in the next data set is T1, Chk2 (Homo sapiens, UniProt O96017).
T1 construct: purchased Upstate Discovery Ltd
T1 sequence (O96017 whole entry): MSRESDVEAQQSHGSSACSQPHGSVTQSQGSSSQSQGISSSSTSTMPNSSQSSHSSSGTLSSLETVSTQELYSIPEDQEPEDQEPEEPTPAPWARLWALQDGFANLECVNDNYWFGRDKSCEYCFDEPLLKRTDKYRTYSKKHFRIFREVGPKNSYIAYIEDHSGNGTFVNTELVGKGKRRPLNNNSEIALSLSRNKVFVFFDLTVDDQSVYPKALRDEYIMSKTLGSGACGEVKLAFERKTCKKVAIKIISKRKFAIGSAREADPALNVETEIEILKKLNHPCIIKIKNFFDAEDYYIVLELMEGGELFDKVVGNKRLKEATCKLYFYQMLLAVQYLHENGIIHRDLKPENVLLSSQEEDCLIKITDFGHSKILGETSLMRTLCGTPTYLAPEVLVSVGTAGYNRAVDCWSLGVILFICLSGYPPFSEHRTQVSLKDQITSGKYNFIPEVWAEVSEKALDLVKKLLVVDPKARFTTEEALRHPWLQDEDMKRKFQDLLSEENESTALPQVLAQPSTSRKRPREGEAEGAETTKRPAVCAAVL
The data set is described as follows: Kinase inhibitory activity assay (Upstate, 33P-ATP). Type of data set: biochemical. To be noted: read-out: Inhibition of kinases in vitro, % at 30 nM. On the procedure:
Where inhibition was high an IC50 was determined.

Data set [4] concerns primary human mammary epithelial cells. The settings on record: 24 h.

As for “1-(2,6-difluorophenyl)-N-[3-(5-morpholin-4-ylmethyl-1H-benzimidazol-2-yl)-1H-pyrazol-4-yl]-urea”, the log partition coefficient (logP) in data set [1] worked out at 3.24. In addition, in data set [1], the logPion was 0.36. Also, the log distribution coefficient (logD) in data set [1] (pH=6) turned out to be 2.27; in data set [1] (pH=6.5), 2.68; in data set [1] (pH=7.4), 3.11.

As for `O=C(Nc1c[nH]nc1-c1nc2cc(CN3CCOCC3)ccc2[nH]1)Nc1c(F)cccc1F` (as salt: hydrochloride) [1-(2,6-difluorophenyl)-N-[3-(5-morpholin-4-ylmethyl-1H-benzimidazol-2-yl)-1H-pyrazol-4-yl]-urea], the melting point turned out to be 190 °C.

Take `O=C(Nc1c[nH]nc1-c1nc2cc(CN3CCOCC3)ccc2[nH]1)NC1CC1` [Acetate]: the solubility is greater than 100 mg/mL in “physchem [2]” and greater than 25 mg/mL in “physchem [3]” (thermodynamic from solid).

Regarding `O=C(Nc1c[nH]nc1-c1nc2cc(CN3CCOCC3)ccc2[nH]1)NC1CC1` [D-Gluconate], the solubility in the data set “physchem [3]” (thermodynamic from solid) was greater than 25 mg/mL.

As to `O=C(Nc1c[nH]nc1-c1nc2cc(CN3CCOCC3)ccc2[nH]1)NC1CC1` [D-Glucuronate], the solubility in “physchem [2]” was greater than 100 mg/mL; in “physchem [3]” it was greater than 25 mg/mL. Also, the solubility at 20 h in the data set “physchem [3]” (thermodynamic from solid) is greater than 50 mg/mL.

In the case of `O=C(Nc1c[nH]nc1-c1nc2cc(CN3CCOCC3)ccc2[nH]1)NC1CC1` [compound of formula (I^0)], on Chk2, the inhibition at 0.03 µM worked out at 41%. The “effect of treatment on normal cells cf. tumor cells” value in data set [4] was “fewer become multinucleated or die after treatment, but instead undergo reversible G2/M arrest”.
